Results: PubChem BioAssay (NCI)
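Results reflect a 48-hour exposure of cells in 96-well plates to compound at five concentrations. TGI: concentration producing complete growth inhibition.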

Columns and labels:
Experiment in all cases: NCI tumour cell line growth inhibition, 48 h
786-0 renal = test system: 786-0 renal
A498 renal = test system: A498 renal
A549 NSCLC = test system: A549 NSCLC
ACHN renal = test system: ACHN renal
CAKI-1 renal = test system: CAKI-1 renal
CCRF-CEM leukemia = test system: CCRF-CEM leukemia
COLO 205 colon = test system: COLO 205 colon
DLD-1 colon = test system: DLD-1 colon
DMS 114 small cell lung = test system: DMS 114 small cell lung
DMS 273 small cell lung = test system: DMS 273 small cell lung
EKVX NSCLC = test system: EKVX NSCLC
HCC-2998 colon = test system: HCC-2998 colon
HCT-116 colon = test system: HCT-116 colon
HCT-15 colon = test system: HCT-15 colon
HL-60(TB) leukemia = test system: HL-60(TB) leukemia
HOP-18 NSCLC = test system: HOP-18 NSCLC
HOP-62 NSCLC = test system: HOP-62 NSCLC
HOP-92 NSCLC = test system: HOP-92 NSCLC
HT29 colon = test system: HT29 colon
IGROV1 ovarian = test system: IGROV1 ovarian
K-562 leukemia = test system: K-562 leukemia
KM12 colon = test system: KM12 colon
KM20L2 colon = test system: KM20L2 colon
LOX IMVI melanoma = test system: LOX IMVI melanoma
LXFL 529 NSCLC = test system: LXFL 529 NSCLC
M14 melanoma = test system: M14 melanoma
M19-MEL melanoma = test system: M19-MEL melanoma
MALME-3M melanoma = test system: MALME-3M melanoma
MOLT-4 leukemia = test system: MOLT-4 leukemia
NCI-H226 lung = test system: NCI-H226 lung
NCI-H23 lung = test system: NCI-H23 lung
NCI-H460 lung = test system: NCI-H460 lung
NCI-H522 lung = test system: NCI-H522 lung
OVCAR-3 ovarian = test system: OVCAR-3 ovarian
OVCAR-4 ovarian = test system: OVCAR-4 ovarian
OVCAR-5 ovarian = test system: OVCAR-5 ovarian
OVCAR-8 ovarian = test system: OVCAR-8 ovarian
RPMI-8226 leukemia = test system: RPMI-8226 leukemia
RXF 393 renal = test system: RXF 393 renal
RXF-631 renal = test system: RXF-631 renal
SF-268 CNS = test system: SF-268 CNS
SF-295 CNS = test system: SF-295 CNS
SF-539 CNS = test system: SF-539 CNS
SK-MEL-2 melanoma = test system: SK-MEL-2 melanoma
SK-MEL-28 melanoma = test system: SK-MEL-28 melanoma
SK-MEL-5 melanoma = test system: SK-MEL-5 melanoma
SK-OV-3 ovarian = test system: SK-OV-3 ovarian
SN12C renal = test system: SN12C renal
SNB-75 CNS = test system: SNB-75 CNS
SNB-78 CNS = test system: SNB-78 CNS
SR leukemia = test system: SR leukemia
SW-620 colon = test system: SW-620 colon
TK-10 renal = test system: TK-10 renal
U251 CNS = test system: U251 CNS
UACC-257 melanoma = test system: UACC-257 melanoma
UACC-62 melanoma = test system: UACC-62 melanoma
UO-31 renal = test system: UO-31 renal
SNB-19 CNS = test system: SNB-19 CNS
XF 498 CNS = test system: XF 498 CNS

O=C(O/N=C1/CCC/C1=C\c1ccccc1)c1ccc([N+](=O)[O-])cc1
TGI (786-0 renal): > 100 µM
TGI (A498 renal): > 100 µM
TGI (A549 NSCLC): > 100 µM
TGI (ACHN renal): > 100 µM
TGI (CAKI-1 renal): > 100 µM
TGI (CCRF-CEM leukemia): > 100 µM
TGI (COLO 205 colon): > 100 µM
TGI (DLD-1 colon): > 100 µM
TGI (DMS 114 small cell lung): > 100 µM
TGI (DMS 273 small cell lung): > 100 µM
TGI (EKVX NSCLC): > 100 µM
TGI (HCC-2998 colon): 25.7 µM
TGI (HCT-116 colon): > 100 µM
TGI (HCT-15 colon): > 100 µM
TGI (HL-60(TB) leukemia): > 100 µM
TGI (HOP-18 NSCLC): > 100 µM
TGI (HOP-62 NSCLC): > 100 µM
TGI (HOP-92 NSCLC): > 100 µM
TGI (HT29 colon): > 100 µM
TGI (IGROV1 ovarian): > 100 µM
TGI (K-562 leukemia): > 100 µM
TGI (KM12 colon): > 100 µM
TGI (KM20L2 colon): > 100 µM
TGI (LOX IMVI melanoma): > 100 µM
TGI (LXFL 529 NSCLC): > 100 µM
TGI (M14 melanoma): > 100 µM
TGI (M19-MEL melanoma): > 100 µM
TGI (MALME-3M melanoma): > 100 µM
TGI (MOLT-4 leukemia): > 100 µM
TGI (NCI-H226 lung): > 100 µM
TGI (NCI-H23 lung): > 100 µM
TGI (NCI-H460 lung): > 100 µM
TGI (NCI-H522 lung): > 100 µM
TGI (OVCAR-3 ovarian): > 100 µM
TGI (OVCAR-4 ovarian): > 100 µM
TGI (OVCAR-5 ovarian): > 100 µM
TGI (OVCAR-8 ovarian): > 100 µM
TGI (RPMI-8226 leukemia): > 100 µM
TGI (RXF 393 renal): > 100 µM
TGI (RXF-631 renal): > 100 µM
TGI (SF-268 CNS): > 100 µM
TGI (SF-295 CNS): > 100 µM
TGI (SF-539 CNS): > 100 µM
TGI (SK-MEL-2 melanoma): > 100 µM
TGI (SK-MEL-28 melanoma): > 100 µM
TGI (SK-MEL-5 melanoma): > 100 µM
TGI (SK-OV-3 ovarian): > 100 µM
TGI (SN12C renal): > 100 µM
TGI (SNB-75 CNS): 91.3 µM
TGI (SNB-78 CNS): > 100 µM
TGI (SR leukemia): > 100 µM
TGI (SW-620 colon): > 100 µM
TGI (TK-10 renal): > 100 µM
TGI (U251 CNS): > 100 µM
TGI (UACC-257 melanoma): > 100 µM
TGI (UACC-62 melanoma): > 100 µM
TGI (UO-31 renal): 74.9 µM

Cc1cc(C)nc(NS(=O)(=O)c2ccc(NC(=O)c3cccc4c(=O)c5ccccc5[nH]c34)cc2)n1
TGI (786-0 renal): 36.8 µM
TGI (A498 renal): 34.9 µM
TGI (A549 NSCLC): 51.2 µM
TGI (ACHN renal): 49.2 µM
TGI (CAKI-1 renal): > 100 µM
TGI (CCRF-CEM leukemia): > 100 µM
TGI (COLO 205 colon): 34.5 µM
TGI (DLD-1 colon): 45.6 µM
TGI (DMS 114 small cell lung): 35.2 µM
TGI (DMS 273 small cell lung): 48.4 µM
TGI (EKVX NSCLC): 86.3 µM
TGI (HCC-2998 colon): 31.7 µM
TGI (HCT-116 colon): 30.7 µM
TGI (HCT-15 colon): 46.3 µM
TGI (HL-60(TB) leukemia): 47.7 µM
TGI (HOP-18 NSCLC): 47.2 µM
TGI (HOP-62 NSCLC): 56.7 µM
TGI (HOP-92 NSCLC): 44 µM
TGI (HT29 colon): 43.9 µM
TGI (IGROV1 ovarian): 68.1 µM
TGI (K-562 leukemia): 90.3 µM
TGI (KM12 colon): 30.7 µM
TGI (KM20L2 colon): 40.5 µM
TGI (LOX IMVI melanoma): 31.8 µM
TGI (LXFL 529 NSCLC): > 100 µM
TGI (M14 melanoma): 40.7 µM
TGI (MALME-3M melanoma): 33.8 µM
TGI (MOLT-4 leukemia): > 100 µM
TGI (NCI-H226 lung): 36 µM
TGI (NCI-H23 lung): 33.4 µM
TGI (NCI-H460 lung): 36.1 µM
TGI (NCI-H522 lung): 27.6 µM
TGI (OVCAR-3 ovarian): 37.6 µM
TGI (OVCAR-4 ovarian): 43.3 µM
TGI (OVCAR-8 ovarian): 41.1 µM
TGI (RPMI-8226 leukemia): 83 µM
TGI (RXF-631 renal): > 100 µM
TGI (SF-268 CNS): 48.2 µM
TGI (SF-295 CNS): 43.5 µM
TGI (SF-539 CNS): 35.4 µM
TGI (SK-MEL-28 melanoma): 36 µM
TGI (SK-MEL-5 melanoma): 24 µM
TGI (SK-OV-3 ovarian): 17.1 µM
TGI (SN12C renal): 32.8 µM
TGI (SNB-19 CNS): 80.7 µM
TGI (SNB-75 CNS): 50 µM
TGI (SNB-78 CNS): 48.6 µM
TGI (SR leukemia): > 100 µM
TGI (SW-620 colon): 55.5 µM
TGI (TK-10 renal): 51 µM
TGI (U251 CNS): 32.4 µM
TGI (UACC-257 melanoma): 33.9 µM
TGI (UACC-62 melanoma): 44.5 µM
TGI (UO-31 renal): 45.7 µM
TGI (XF 498 CNS): 40.6 µM
